# Measured values published in US20090214466A1 (priority 2006, published 2009).
# Assays:
# Details in all cases: human, in vivo
# migraine symptoms [1] = system: migraine symptoms
# [2] = system: symptoms of post-laminectomy syndrome
# migraine symptoms [3] = system: migraine symptoms; remark: listed apart in the source
substance,measurement,setting,value
etanercept [ENBREL® etanercept],frequency and severity of migraine symptoms,migraine symptoms [1],Reduction in the frequency and severity of migraine symptoms was reported
infliximab [REMICADE® infliximab],symptoms of post-laminectomy syndrome,[2],reduced symptoms
botulinum toxin type A [BOTOX® botulinum toxin type A],"frequency, severity, and duration of migraine symptoms",migraine symptoms [3],"Reduction in the frequency, severity, and duration of migraine symptoms was reported"
